Reference: patent US4870057A, “Use of fructose-1,6-diphosphate in the treatment of acute alcoholic intoxication and chronic ethylism, and related pharmaceutical compositions” (priority 1988, dated 1989)
Values joined by “and” are separate entries in the source; they are usually repeats but may differ in a detail not shown here. Equal values may be shown once.

Assays:
[1] = Ethanol hematic concentrations and pharmacokinetics in volunteers given ethanol orally after FDP infusion (cross-over); assay type: in vivo, male volunteers (human)
Text: (§1) Male volunteers (ages 19 to 46, 73 kg average weight) in good conditions of health as ascertained by objective test and hematologic and biochemical analyses, participated in the investigation. None of the subjects had used drugs during the week before the study nor in the course of the study.
Each subject was given, in two sittings, with one wash-out week interval between sittings, ethanol (control) and ethanol with added fructose-1,6-diphosphate (FDP) according to an experimental cross-over design. After one night of fasting, each patient received ethanol orally, in the morning, at a rate of 0.5 g/kg body weight, as a 30% analytical grade ethyl alcohol solution in effervescent mineral water. FDP was administered at the rate of 250 mg/kg of fructose-1,6-diphosphate sodium hydrate salt in an intravenous infusion during 20 minutes (2.5 ml/kg).
(§2) From the individual data obtained in each sitting and for each subject, the values of the following parameters were calculated: maximum concentration (Cmax), time for attaining maximum concentration (Tmax), mean life of absorption (Ab t1/2), mean life of elimination (El t1/2) and area under curve zero to infinity (AUC). The ethanol and acetaldehyde concentrations were measured in the two sittings of study and the values of the pharmacokinetic parameters given above were compared by the Student's t-test for paired data, with the exception of the maximum concentration times of ethanol which were compared by the Wilcoxon test. The level of statistical significances was set at 5%.

[2] = Acetaldehyde hematic concentrations in volunteers given ethanol orally after FDP infusion (cross-over); assay type: in vivo, male volunteers (human); details: Student's t test for coupled data
Text: as §1
Each subject was given, in two sittings, with one wash-out week interval between sittings, ethanol (control) and ethanol with added fructose-1,6-diphosphate (FDP) according to an experimental cross-over design. After one night of fasting, each patient received ethanol orally, in the morning, at a rate of 0.5 g/kg body weight, as a 30% analytical grade ethyl alcohol solution in effervescent mineral water. […]
as §2, with “The level of statistical significances was set at 5%.” left out

[3] = system: patients in a state of acute drunkenness; test: Vital signals (heart rate, arterial pressure) in patients with acute drunkenness; assay type: in vivo, patients (human)
Procedure: (§3) 28 patients were selected, 26 males and 2 females, aged 17 to 68, which had been taken to a first aid post for traumas suffered during a state of acute drunkenness (18 cases) or to phenomena resulting from that state of drunkenness (10 cases). Of the patients under observation, 18 were chronic alcoholics and 10 were subjects with no alcoholism story (Table 4).
(§4) The patients then received, at random, one rapid infusion of 15 g FDP as a 10% sodium salt solution of FDP, or a 5% (150 ml) glucose solution. 15 minutes after the completion of infusion, evaluations were repeated.
(§5) Following the first anamnestic and diagnostic checks, measurements were taken of the arterial pressure and the heart rate. Then, evaluation was made, in basal conditions, of the psychic and behavioral state (psychomotor excitement, vigilance, time-space orientation and lucidity) and the neurological state (equilibrium, forefinger-nose test, palpebral, corneal and pain reflexes). For the semiquantitative evaluation of the selected parameters, severity scales with arbitrary ratings were adopted. Evaluation of lucidity was made by using the figure repeating test.
(§6) The data obtained for each patient were compared with those obtained before the treatment by means of the mixed pattern variance analysis followed, in case of gross significance, by the Tukey's multiple comparison test. A 5% level was used as the minimum level of statistical significance.

[4] = system: patients in a state of acute drunkenness; test: Psychic and behavioural conditions scores in patients with acute drunkenness; assay type: in vivo, patients (human)
Procedure: as §3, §4, §5, §6

[5] = system: patients in a state of acute drunkenness; test: Impairment scores in neurologic tests in patients with acute drunkenness; assay type: in vivo, patients (human)
Procedure: as §3, §4, §5, §6

[6] = system: chronic alcoholics at a stage of detoxication; test: Psychiatric symptoms (psychic and behavioural state scores) in chronic alcoholics at a stage of detoxication; assay type: in vivo, patients (human); details: for Motor derangement score: FDP group (20 g/day i.v. days II-VII plus nutrition), basal 1.4; for Motor derangement score / Behavioural disorders score / Conscience disorders score: p < 0.01 vs basal; for Behavioural disorders score / Conscience disorders score: FDP group; for Behavioural disorders score: basal 1.3; for Conscience disorders score: basal 1.5
Procedure: (§7) This study left out patients more than 70 years old or patients suffering from severe renal or cardiovascular impairment, diabetes or other pathologies (epilepsy, delirium […] could prevent evaluation of the investigated treatment. During study, which was conducted single blind, two therapeutic procedures were compared for a period of 8 days allotted as follows: one day (I) for selection and basic determinations at the time of alcohol withdrawal; six days (II-VII) for treatment; one day (VIII) for follow-up. […] Some of the patients received, days II to IV, a total parenteral nutrition (NTP) followed by hypercaloric diet during the remaining three days. During the study, no further drugs were administered except those which would be required by concomitant pathologies and which could not interfere with the nutritional state. In the patients imperatively requiring a control of psychomotor derangement during the abstinence period, chlordimethyldiazepam (2 mg/iv) was used and the daily doses thereof were recorded. On the first day the history, particularly in respect of alcoholism, was obtained. On days I, V and VIII a thorough examination of the patient's neurological and psychiatric conditions was performed. The psychic areas were evaluated by using simplified rating scales for the psychomotor derangement and the behaviour and consciousness disorders present in the alcohol withdrawal period. For the neurological evaluation, there were taken into consideration the reflexes, the exteroceptive and propioceptive sensitivities and the presence of ataxia, tremors and cramps, and semiquantitative ratings of 0 (no symptom or normal picture) to 3 (high severity symptom or no response) were assigned.

[7] = system: chronic alcoholics at a stage of detoxication; test: Neurological symptoms (impairment scores in neurological tests) in chronic alcoholics at a stage of detoxication; assay type: in vivo, patients (human); details: for Reflexes impairment score: basal 1.6, control 1.2; for Ataxia-tremors cramps impairment score: basal 1.7; for Sensitivity impairment score: basal 3.0
Procedure: as §7

[8] = Tolerability in patients with acute drunkenness; details: human, in vivo
Procedure: as §3, §4

[9] = no test described; cited from earlier work

Structure (SMILES): O=C(COP(=O)(O)O)[C@@H](O)[C@H](O)[C@H](O)COP(=O)(O)O [FDP, fructose-1,6-diphosphate]
- Ethanol AUC in the 0-90 min range, lower following FDP ([1]; 0-90 min, vs control (FIG. 1)): 40%
- Percent difference of ethanol concentration after FDP with respect to control (lower) ([1]; 15 min): 70%
- Percent difference of ethanol concentration after FDP with respect to control (lower) ([1]; 30 min): 64%
- Percent difference of ethanol concentration after FDP with respect to control (lower) ([1]; 60 min): 31%
- Ethanol AUC (zero to infinity), average ([1]; FDP session, Table 2, n = 8, SD 976, control 2229): 2695 mmol·min/L
- Ethanol AUC (zero to infinity), average ([1]; FDP sitting, control 2695): 2229 mmol·min/L
- Significance of the difference in ethanol AUC vs control ([1]; Student's t test, paired): no significant differences
- Significance of the difference in ethanol maximum concentration vs control ([1]; Student's t test, paired): the observed difference did not attain statistical significance
- Difference in the alcohol absorption rate ([1]; from absorption half-life vs control, p<0.05): 66%
- Time for attaining maximum ethanol concentration, longer than control ([1]; p<0.05 vs control sitting): 120%
- Significance of acetaldehyde concentration differences, FDP vs control [2]: no statistically significant differences at any of the considered times and ns
- Arterial diastolic pressure, final ([3]; 15 min after infusion of 15 g FDP, basal 67.9 (text 68), p < 0.05 vs basal, glucose 69.6 to 69.6): 75.3 mm Hg and 75 mm Hg
- Cardiac frequency, final ([3]; 15 min after infusion of 15 g FDP, basal 103.1, p < 0.01 vs basal, glucose 101.7 to 96.9): 94.4 beats/minute
- Arterial sistolic pressure, final ([3]; 15 min after infusion of 15 g FDP, basal 113.2, glucose 113.1 to 110.8): 116.5 mm Hg
- Blood pressure and heart rate in subjects with basal hypertension accompanied by tachycardia ([3]; after FDP): permits the normal values of both blood pressure and heart rate to be restored
- Heart rate, final ([3]; after FDP, from 103 basal, significant): 94 pulsations/minute
- Motor derangement score, final ([4]; 15 min after infusion of 15 g FDP, basal 1.1, p < 0.01 vs basal, glucose 1.0 to 0.7): 0.3
- Vigilance impairment score, final ([4]; 15 min after infusion of 15 g FDP, basal 1.1, p < 0.01 vs basal, glucose 1.2 to 1.0 (p < 0.05 vs final FDP)): 0.5
- Lucidity level score, final ([4]; 15 min after infusion of 15 g FDP, basal 1.6, p < 0.01 vs basal, glucose 1.5 to 2.5): 3.6
- Orientation impairment score, final ([4]; 15 min after infusion of 15 g FDP, basal 4.5, p < 0.01 vs basal, glucose 4.3 to 3.4 (p < 0.05 vs final FDP)): 1.7
- Comparison of treatments, final values for vigilance and orientation ([4]; FDP vs glucose solution): significant difference between FDP and glucose solution
- State of psychomotor disorder ([4]; after FDP): tends towards complete disappearance
- Vigilance, orientation and mental lucidity ([4]; after FDP): notably improved, with the tendency being towards return to normal levels
- Psychic and behavioural state, all parameters ([4]; after FDP vs basal): all of the parameters show to be positively and significantly influenced
- Corneal reflex impairment score, final ([5]; 15 min after infusion of 15 g FDP, basal 0.1, glucose 0.1 to 0.1): 0.0
- Palpebral reflex impairment score, final ([5]; 15 min after infusion of 15 g FDP, basal 0.4, p < 0.05 vs basal, glucose 0.5 to 0.1): 0.0
- Pain reflex impairment score, final ([5]; 15 min after infusion of 15 g FDP, basal 0.9, p < 0.05 vs basal, glucose 0.5 to 0.2): 0.3
- "Forefinger-nose" test impairment score, final ([5]; 15 min after infusion of 15 g FDP, basal 1.3, p < 0.01 vs basal, glucose 0.9 to 0.7): 0.4
- Equilibrium impairment score, final ([5]; 15 min after infusion of 15 g FDP, basal 1.6, p < 0.01 vs basal, glucose 1.1 to 0.9): 1.1
- Postural equilibrium, forefinger-nose test, palpebral and pain reflexes ([5]; after FDP): significantly improved
- Corneal reflex in patients with basal impairment ([5]; at the end of FDP treatment, all the patients): normal state in this respect at the end of FDP treatment
- Motor derangement score ([6]; day V, control 0.8): 0.6
- Motor derangement score ([6]; day VIII, control 0.5): 0.4
- Behavioural disorders score ([6]; day V, control 0.7): 0.4
- Conscience disorders score ([6]; day V, control 0.6): 0.3
- Behavioural disorders score ([6]; day VIII, control 0.5): 0.3
- Conscience disorders score ([6]; day VIII, control 0.5): 0.2
- Consumption of chlordimethyldiazepam ([6]; FDP vs no FDP): higher consumption of chlordimethyldiazepam required by patients not having get FDP
- Psychiatric symptoms, improvement ([6]; day V, FDP treated patients only, p<0.01): improvement of all of the considered symptoms
- Consciousness disorders ([6]; eighth day, FDP treated patients, not in control group): the consciousness disorders did disappear in FDP treated patients
- Psychiatric symptomatology connected with the alcohol withdrawal ([6]; patients treated with FDP): disappeared after only five days of treatment
- Reflexes impairment score ([7]; FDP group (20 g/day i.v. days II-VII plus nutrition), day V): 1.2
- Ataxia-tremors cramps impairment score ([7]; FDP group, day V, p < 0.01 vs basal, control 0.9): 1.0
- Sensitivity impairment score ([7]; FDP group, day V, p < 0.01 vs basal, control 2.4): 2.1
- Reflexes impairment score ([7]; FDP group, day VIII, p < 0.01 vs basal): 1.0
- Ataxia-tremors cramps impairment score ([7]; FDP group, day VIII, p < 0.01 vs basal, control 0.8): 0.5
- Sensitivity impairment score ([7]; FDP group, day VIII, p < 0.01 vs basal, control 1.7): 1.8
- Reflexes, recovery ([7]; day VIII, only in FDP treated group): the reflexes recovered to normal
- Remaining neurological symptomatology, FDP vs control ([7]; evolutive tendency in the course of the study): does not evidence any difference betwen the two treatments
- Tolerability [8]: good tolerability
- Elimination half-life of the FDP [9]: less than 15 minutes
